The values that follow come from patent US12492210B2, “Tricyclic compounds and their use” (HUTCHISON MEDIPHARMA LIMITED, priority 2019, dated 2025).

Structures are written as SMILES. A value given as a limit tells only on which side of the number the result lay.

The test system of assay [1] is p-RSK (Thr359) in colo205 cells. Nature of the assay: p-RSK (Thr359) Acumen Assay in Colo205. The class given is cell-based. The following applies: Homo sapiens, COLO 205, 1 hour compound incubation, read-out: Example 19 IC50. The method, then:
Example 19: p-RSK (Thr359) Acumen Assay in Colo205
• Phospho-p90RSK (Thr359) (D1E9) Rabbit mAb: cell signal, #8753 • Alexa Fluor® 488 donkey anti-rabbit IgG: invitrogen, #A-21206 • Propidium Iodide: Sigma, #p4170 • 4% Paraformaldehyde: SCRC, #DF021 • 10% Triton X-100: PIERCE, #28314 • 96-well plate (black with clear bottom): BD, #354640 • Acumen® eX3 (A Multilaser Microplate Cytometer For Enhanced High Content Screening): TTP LabTech 3. Acumen Assay Protocol • Seed 4000 cells in 100 μl 10% FBS/well into 96-well plate, incubate at 37° C., 5% CO2, overnight. • Dilute the compound to 3, 1, 0.33, 0.11, 0.037, 0.012, 0.004, 0.001 μM, keeping the DMSO concentration at 5%. Add 10 μl of diluted compound per well and incubate at 37° C., 5% CO2 for 1 hour. • Add 100 μl of 4% pre-warmed Paraformaldehyde (2% final), and incubate for 45 min at room temperature. • Remove paraformaldehyde solutions. Add 100 μl of ice-cold 0.1% Triton to fixed cells at room temperature for 30 min. • Wash twice with 150 μl PBS and incubate with 100 μl blocking buffer (1% BSA, in PBS) for 2˜3 hours at room temperature, seal the plate. • Wash once with PBS and incubate with 35 μl p-RSK (Thr359) (1:1000 dilution) overnight at 4° C. Seal the plate. • Wash twice with PBS and incubate for 1.5 hours at room temperature with 35 μl of Alexa Fluor® 488 donkey anti-rabbit IgG at a 1:1,000 dilution in antibody dilution buffer (0.1% BSA, in PBS). Cover plate in foil to keep out of light. • Wash twice with 150 μl PBS. Add 35 μl of 1.5 μM Propidium Iodide stock to each well to determine cell number, seal the plate. • Incubate at room temperature for 30 min. Load the plate into the Acumen Explorer and scan with the appropriate instrument settings. 4. Data Analysis
[formula] Note: • Percentagecompound well represents the positive percentage of cells treated by compound. • Percentagemin well represents the positive percentage of cells treated with 3 uM GDC0994. • Percentagemax well represents the positive percentage of cells without compounds treatment. 5. IC50 Value: determine IC50 with add-in software for Microsoft Excel, XLfit™ (version 2.0) from ID Business Solutions (Guildford, UK)

Another assay deals with T1, MAPK1(ERK2) enzyme (Homo sapiens, UniProt P28482).
T1 construct: purchased Invitrogen PV3313
Nature of the assay: Z-Lyte Kinase Assay of ERK2. The class given is biochemical. Conditions: read-out: Example 18 IC50. On the procedure:
Example 18: Z-Lyte Kinase Assay of ERK2
1. Materials and Reagents:
2. Reaction Steps: Plate Map
3. Solution Preparation • 1) 1.33× Kinase Buffer: Dilute 5× Kinase Buffer to 1.33× with ddH2O • 2) 4× Test Compounds: Serially dilute the test compounds to 4 folds of the concentrations desired, keeping the DMSO concentration at 8%. The final concentrations are 1, 0.33, 0.11, 0.037, 0.012, 0.004, 0.0014, 0.00046 μM, and the final concentration of DMSO is 2%. • 3) Kinase/Peptide Mixture (P/K solution): Prepare Kinase/Peptide Mixture by diluting the kinase to 0.6 μg/ml and the Z-LYTE™ Ser/Thr3 peptide to 4 μM in 1.33× Kinase Buffer. Mix gently by pipetting. • 4) Phospho-peptide Solution (PP solution): Add 0.4 μl of Z-LYTE™ Ser/Thr3 Phospho-peptide to 99.6 μl of 1.33× Kinase Buffer. • 5) ATP Solution: Prepare ATP Solution by diluting the 10 mM of ATP in 1.33× Kinase Buffer to 100 μM. • 6) Development Solution: Dilute Development Reagent A with Development Buffer as 1:1024. 4. Reaction • 1) Kinase reaction (10 μl of Volume) • a. In a 384-well plate, add 2.5 μl of 4× test Cpds to each well except C1, C2, C3 wells Add 2.5 μl of 8% DMSO to C1, C2, C3 wells • b. Put the plate on ice • c. Add 5 μl of P/K mixture to each test Cpd wells and C1, C2 wells • d. Add 5 μl of PP Solution to C3 well • e. Add 2.5 μl of 1.33× kinase buffer to C1 and C3 wells • f. Add 2.5 μl of 4×ATP Solution to each test Cpd wells and C2 well, respectively. Shake the plate for 30 Sec and centrifuge (1500 rpm, 1 min) • g. Seal the plate to protect from the light and incubate the plate for 1 hour at RT (25-30° C.) • 2) Development reaction • a. Add 5 μl of the Development solution to all wells • b. Shake the plate for 30 sec and centrifuge (1500 rpm, 1 min) • c. Seal the plate to protect from the light and incubate the plate for 1 hour at RT (25-30° C.) • 3) Stop and read • a. Add 5 μl of the Stop reagent to all wells • b. Shake the plate for 30 sec and centrifuge (1500 rpm, 1 min) • c. Measure the value of coumarin (Ex400 nm, Em445 nm) and fluorescein (Ex400 nm, Em520 nm), respectively. 5. Data Analysis Emission Ratio(ER)=Coumarin Emission (445 nm)/Fluorescein Emission (520 nm) % Phosphorylation=1−[ER×C3520nm−C3445nm]/[(C1445nm−C3445nm)+ER×(C3520nm−C1520nm)] Inhibition rate (IR)=1−% Photest Cpd% PhoC2 6. IC50 Value: determine IC50 with add-in software for Microsoft Excel, XLfit™ (version 2.0) from ID Business Solutions (Guildford, UK)

T1 sequence (P28482 whole entry): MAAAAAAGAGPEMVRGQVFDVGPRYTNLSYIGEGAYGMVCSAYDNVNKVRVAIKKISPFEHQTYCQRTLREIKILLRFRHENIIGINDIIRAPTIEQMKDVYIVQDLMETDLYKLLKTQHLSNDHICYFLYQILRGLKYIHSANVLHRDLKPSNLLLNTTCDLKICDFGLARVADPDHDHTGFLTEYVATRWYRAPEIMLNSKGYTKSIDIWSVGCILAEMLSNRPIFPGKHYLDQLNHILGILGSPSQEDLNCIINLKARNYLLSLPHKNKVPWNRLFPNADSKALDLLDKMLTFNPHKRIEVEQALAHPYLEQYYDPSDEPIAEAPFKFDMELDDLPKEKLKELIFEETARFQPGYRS

In the case of `Cn1nccc1Nc1cc(-c2cc3n(c2)CCCn2c-3nnc2C(F)(F)c2ccccc2Cl)c(Cl)cn1` [Compound 35], the values for the IC50 (in assay [1]; on MAPK1(ERK2) enzyme) were at most 100 nM and above 10 nM, respectively.
Take `Cn1nccc1Nc1nccc(-c2cc3n(c2)CCCn2c(COc4ccccc4)nnc2-3)n1` [Compound 36, N-(1-methyl-1H-pyrazol-5-yl)-4-(3-(phenoxymethyl)-6,7-dihydro-5H-pyrrolo[1,2-a][1,2,4]triazolo[3,4-c][1,4]diazepin-10-yl)pyrimidin-2-amine]: the figures for the IC50 (in assay [1]; on MAPK1(ERK2) enzyme) were above 100 nM and at most 5 nM, respectively.
`Cn1nccc1Nc1nccc(-c2cc3n(c2)CCCn2c(COc4ccccc4F)nnc2-3)n1` [Compound 37]: the IC50 (in general, the concentration at which inhibition is half-maximal) in assay [1] is at most 100 nM; at MAPK1(ERK2) enzyme it was at most 5 nM.
Turning to `Cn1nccc1Nc1cc(-c2cc3n(c2)CCCn2c(COc4ccccc4F)nnc2-3)c(Cl)cn1` [Compound 38], the values for the IC50 (in assay [1]; on MAPK1(ERK2) enzyme) were at most 100 nM and above 10 nM, respectively.
Regarding `C[C@H](Oc1ccccc1F)c1nnc2c3cc(-c4ccnc(Nc5ccnn5C)n4)cn3ccn12` [Compound 39, (S)-4-(3-(1-(2-fluorophenoxy)ethyl)pyrrolo[1,2-a][1,2,4]triazolo[3,4-c]pyrazin-9-yl)-N-(1-methyl-1H-pyrazol-5-yl)pyrimidin-2-amine], the concentration for half-maximal inhibition (IC50) in assay [1] was at most 100 nM; at MAPK1(ERK2) enzyme, 5 to 10 nM.
The like results for `Cn1nccc1Nc1nccc(-c2cc3c4nnc(COc5ccccc5Cl)n4ccn3c2)n1` [Compound 40] were, in that order, at most 100 nM and at most 5 nM.
For `Cn1nccc1Nc1nccc(-c2cc3c4nnc(Nc5ccccc5F)n4ccn3c2)n1` [Compound 41, N-(2-fluorophenyl)-9-(2-((1-methyl-1H-pyrazol-5-yl)amino)pyrimidin-4-yl)pyrrolo[1,2-a][1,2,4]triazolo[3,4-c]pyrazin-3-amine], the IC50 is above 100 nM in assay [1] and at most 5 nM at MAPK1(ERK2) enzyme.
The like results for `Cc1c(-c2ccnc(Nc3ccnn3C)n2)cn2c1-c1nnc(Nc3ccccc3F)n1CCC2` [Compound 42] were, in that order, above 100 nM and at most 5 nM.
The like results for `Cn1nccc1Nc1cc(-c2cc3n(c2)CCCn2c(Nc4ccccc4F)nnc2-3)c(Cl)cn1` [Compound 43] were, in that order, at most 100 nM and 5 to 10 nM.
As to `C[C@H](Oc1ccccc1F)c1nnc2n1CC(C)(C)Cn1cc(-c3ccnc(Nc4ccnn4C)n3)cc1-2` [Compound 44, (S)-4-(3-(1-(2-fluorophenoxy)ethyl)-6,6-dimethyl-6,7-dihydro-5H-pyrrolo[1,2-a][1,2,4]triazolo[3,4-c][1,4]diazepin-10-yl)-N-(1-methyl-1H-pyrazol-5-yl)pyrimidin-2-amine], the IC50 in assay [1] is above 100 nM; on MAPK1(ERK2) enzyme, above 10 nM.
On to `Cc1cnc(Nc2ccnn2C)nc1-c1cc2c3nnc(C4(C(F)F)CCC4)n3ccn2c1` [Compound 45], for which the IC50 was at most 100 nM in assay [1] and at most 5 nM at MAPK1(ERK2) enzyme.
In the case of `Cn1nccc1Nc1cc(-c2cc3n(c2)CCn2c-3nnc2C2(C(F)F)CCC2)c(Cl)cn1` [Compound 46], the IC50 in assay [1] was at most 100 nM; at MAPK1(ERK2) enzyme, at most 5 nM.
The like results for `Cc1cnc(Nc2ccnn2C)nc1-c1cc2n(c1)[C@@H](C)Cn1c-2nnc1C1(C(F)(F)F)CCC1` [Compound 47] were, in that order, at most 100 nM and at most 5 nM.
As to `Cc1cnc(Nc2ccnn2C)nc1-c1cc2n(c1)[C@H](C)Cn1c-2nnc1C1(C(F)(F)F)CCC1` [Compound 48], the results for the IC50 (in assay [1]; on MAPK1(ERK2) enzyme) were above 100 nM and at most 5 nM, respectively.
`Cn1nccc1Nc1cc(-c2cc3n(c2)CCCn2c-3nnc2C2(C(C)(F)F)CCC2)c(Cl)cn1` [Compound 49]: the IC50 in assay [1] is at most 100 nM; on MAPK1(ERK2) enzyme, at most 5 nM.
For the compound `C[C@H]1Cn2c(nnc2C2(C(F)(F)F)CCC2)-c2cc(-c3cc(Nc4ccnn4C)ncc3Cl)cn21` [Compound 50], the IC50 in assay [1] is above 100 nM; at MAPK1(ERK2) enzyme it was at most 5 nM.
Regarding `Cn1nccc1Nc1cc(-c2cc3n(c2)CC2(CC2)Cn2c-3nnc2C2(C(F)F)CCC2)c(Cl)cn1` [Compound 51], the IC50 in assay [1] was at most 100 nM; on MAPK1(ERK2) enzyme, at most 5 nM.
The corresponding values for `CC1CCn2c(nnc2C2(C(F)(F)F)CCC2)-c2cc(-c3cc(Nc4ccnn4C)ncc3Cl)cn21` (stereo not shown) [Compound 52] are at most 100 nM and at most 5 nM.
`Cn1nccc1Nc1cc(-c2cc3n(c2)CCCn2c-3nnc2N2CCc3ccccc32)c(Cl)cn1` [Compound 53, 5-Chloro-4-(3-(indolin-1-yl)-6,7-dihydro-5H-pyrrolo[1,2-a][1,2,4]triazolo[3,4-c][1,4]diazepin-10-yl)-N-(1-methyl-1H-pyrazol-5-yl)pyridin-2-amine]: the IC50 is above 100 nM in assay [1] and 5 to 10 nM on MAPK1(ERK2) enzyme.
Turning to `Cn1nccc1Nc1cc(-c2cc3n(c2)CCCn2c-3nnc2N2CCCc3ccccc32)c(Cl)cn1` [Compound 54], the results for the IC50 (in assay [1]; on MAPK1(ERK2) enzyme) were at most 100 nM and 5 to 10 nM, respectively.
The corresponding values for `Cn1nccc1Nc1cc(-c2cc3n(c2)CC2(CCC2)Cn2c-3nnc2C2(C(F)(F)F)CCC2)c(Cl)cn1` [Compound 55, 5-chloro-N-(1-methyl-1H-pyrazol-5-yl)-4-(3′-(1-(trifluoromethyl)cyclobutyl)-5′H,7′H-spiro[cyclobutane-1,6′-pyrrolo[1,2-a][1,2,4]triazolo[3,4-c][1,4]diazepin]-10′-yl)pyridin-2-amine] are at most 100 nM and 5 to 10 nM.
Consider `Cn1nccc1Nc1cc(-c2cc3n(c2)C[C@H](CF)n2c-3nnc2C2(F)CC2)c(Cl)cn1` [Compound 56], for which the results for the half-inhibitory concentration (IC50) (in assay [1]; on MAPK1(ERK2) enzyme) were at most 100 nM and at most 5 nM, respectively.
On to `CCC(F)(F)c1nnc2n1[C@@H](CF)Cn1cc(-c3cc(Nc4ccnn4C)ncc3C)cc1-2` [Compound 57], for which the IC50 in assay [1] was above 100 nM; at MAPK1(ERK2) enzyme, at most 5 nM.
The corresponding values for `Cn1nccc1Nc1cc(-c2cc3n(c2)CCn2c-3nnc2C(F)(F)C(F)F)c(Cl)cn1` [Compound 58] are at most 100 nM and at most 5 nM.
Regarding `Cn1nccc1Nc1cc(-c2cc3n(c2)CCCn2c-3nnc2C2(C(F)F)CC2)c(Cl)cn1` [Compound 59], the IC50 in assay [1] is at most 100 nM; on MAPK1(ERK2) enzyme it was at most 5 nM.
On to `Cc1cnc(Nc2ccnn2C)cc1-c1cc2n(c1)CC(C)Cn1c-2nnc1C(F)(F)C(F)F` (stereo not shown) [Compound 60], for which the figures for the IC50 (in assay [1]; on MAPK1(ERK2) enzyme) were at most 100 nM and at most 5 nM, respectively.
